Source: patent publication US6534524B1, “Indazole compounds and pharmaceutical compositions for inhibiting protein kinases, and methods for their use” (Agouron Pharmaceuticals, Inc., priority 1999, dated 2003)
Values joined by “and” are separate entries in the source; they are usually repeats but may differ in a detail not shown here. Equal values may be shown once. Read-outs that look alike come from different tables or passages of the source. Marks after values point to notes of the source that are not given here.

Key:
[1] = tested on: human umbilical vein endothelial cells (HUVEC); assay: HUVEC proliferation assay (VEGF-stimulated, MTT); type: cell-based; conditions: Homo sapiens, HUVEC
[2] = molecular target: phosphorylated VEGF-R2Δ50 (FLVK-P) (Homo sapiens, UniProt P35968, DEL940-989/E990V); assay: VEGF-R2 coupled spectrophotometric assay, phosphorylated VEGF-R2Δ50 (FLVK-P)
CDK2/Cyclin A = CDK2/Cyclin A (Homo sapiens, UniProt P24941); assay: CDK2/Cyclin A assay ([32P]ATP, Rb fragment); type: biochemical
CDK4/Cyclin D3 complex = CDK4/Cyclin D3 complex (Homo sapiens, UniProt P11802); assay: CDK4/Cyclin D assay ([32P]ATP, Rb fragment)
[3] = molecular target: unphosphorylated VEGF-R2Δ50 (FLVK) (Homo sapiens, UniProt P35968, DEL940-989/E990V); assay: VEGF-R2 coupled spectrophotometric assay, unphosphorylated VEGF-R2Δ50 (FLVK); conditions: for Ki: FLVK Ki, Table 1; for inhibition at 0.05 µM: read-out: FLVK % inhibition
human CHK1 (FL-CHK1) = molecular target: T1, human CHK1 (FL-CHK1) (Homo sapiens, UniProt O14757); assay: CHK1 assay (coupled spectrophotometric, Syntide-2); type: biochemical
T1 construct: C-terminally His-tagged full-length human CHK1 (FL-CHK1); made in house; host or cells: baculovirus/insect cell system
T1 sequence (O14757 1-476): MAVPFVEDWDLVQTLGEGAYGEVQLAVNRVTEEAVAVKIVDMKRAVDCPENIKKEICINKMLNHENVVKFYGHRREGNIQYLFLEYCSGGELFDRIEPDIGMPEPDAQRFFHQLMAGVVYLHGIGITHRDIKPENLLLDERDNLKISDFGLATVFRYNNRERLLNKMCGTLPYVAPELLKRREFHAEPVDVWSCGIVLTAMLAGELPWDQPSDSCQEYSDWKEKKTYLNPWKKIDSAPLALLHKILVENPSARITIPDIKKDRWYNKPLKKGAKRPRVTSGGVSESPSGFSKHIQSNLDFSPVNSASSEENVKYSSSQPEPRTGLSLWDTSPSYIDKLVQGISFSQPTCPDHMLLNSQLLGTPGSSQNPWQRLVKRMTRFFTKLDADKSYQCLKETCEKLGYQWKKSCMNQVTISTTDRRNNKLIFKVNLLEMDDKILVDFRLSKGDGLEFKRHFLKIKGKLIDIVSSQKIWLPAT
In short: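 Full-length C-terminally His-tagged human CHK1 expressed in baculovirus/insect cells, used at 10 nM with Syntide-2 substrate. ADP formation coupled via PK/LDH to NADH oxidation, followed as absorbance decrease at 340 nm. Ki from initial rates at varying compound concentrations.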

human FGF-R1 = human FGF-R1 (Homo sapiens, UniProt P11362, C488A/C584S/L457V); assay: FGF-R spectrophotometric assay; conditions: for inhibition at 1 µM: read-out: FGF-P % inhibition, Table 1
[4] = Human liver microsome (HLM) assay; type: in vitro ADME; conditions: human liver microsomes, 5 μM test compound
In short: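 LC-MS quantified test compound remaining after 0 and 2 h incubation with human liver microsomes. Triplicate samples, clarified by 10 min centrifugation at 14000 g.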

[5] = Determination of inhibitor concentration in mouse plasma after intraperitoneal and oral dosing; type: in vivo; conditions: for concentration at 7 h: vehicle PEG400:H2O pH 2.3 30:70, read-out: Cmin (7 hr conc.)
In short: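 Plasma levels quantified by HPLC or LC-MS using a standard curve prepared in mouse plasma, following ethyl acetate extraction with internal standard and sodium hydroxide. Sampling at 0.5, 1, 4 h (ocular bleed) and 7 h (cardiac puncture) after oral or intraperitoneal dosing.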

LCK tyrosine kinase = molecular target: T2, LCK tyrosine kinase (Homo sapiens, UniProt P06239, C224D/P223M); assay: LCK spectrophotometric assay; type: biochemical; conditions: Table 1, compound concentration 1 μM; for inhibition at 1 µM: read-out: Lck-P % inhibition
T2 construct: starting from amino acid residue 223 to the end of the protein at residue 509; made in house; host or cells: insect cells
Procedure: The production of ADP from ATP that accompanies phosphoryl transfer was coupled to oxidation of NADH using phosphoenolpyruvate (PEP) and a system having pyruvate kinase (PK) and lactic dehydrogenase (LDH). The oxidation of NADH was monitored by following the decrease of absorbance at 340 nm (e340=6.22 cm^−1 mM^−1) using a Beckman DU 650 spectrophotometer. […] Ki values were determined by measuring enzyme activity in the presence of varying concentrations of test compounds. The data were analyzed using Enzyme Kinetic and Kaleidagraph software.
The spectrophotometric assay was carried out as described above for VEGF-R2, except for the following changes in concentration: LCK=60 nM, MgCl2=0 mM, poly(E4Y1)=20 mM.

[6] = + albumin, read-out: HUVEC + albumin IC50
[7] = IP, 25 mg/kg, vehicle PEG400:H2O pH 2.3 30:70
[8] = PO, 50 mg/kg, vehicle PEG400:H2O pH 2.3 30:70

Sequence of CDK4/Cyclin D3 complex (P11802 whole entry, the tested form may be a part): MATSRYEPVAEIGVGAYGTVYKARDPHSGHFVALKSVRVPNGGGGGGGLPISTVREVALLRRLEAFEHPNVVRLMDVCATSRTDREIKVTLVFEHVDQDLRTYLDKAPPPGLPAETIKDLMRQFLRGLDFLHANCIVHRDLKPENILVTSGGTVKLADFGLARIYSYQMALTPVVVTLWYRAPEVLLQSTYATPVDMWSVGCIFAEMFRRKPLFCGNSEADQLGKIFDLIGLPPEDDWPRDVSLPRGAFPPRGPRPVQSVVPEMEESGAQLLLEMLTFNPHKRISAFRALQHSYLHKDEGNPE
Sequence of CDK4/Cyclin D3 complex (P30281 whole entry partner, the tested form may be a part): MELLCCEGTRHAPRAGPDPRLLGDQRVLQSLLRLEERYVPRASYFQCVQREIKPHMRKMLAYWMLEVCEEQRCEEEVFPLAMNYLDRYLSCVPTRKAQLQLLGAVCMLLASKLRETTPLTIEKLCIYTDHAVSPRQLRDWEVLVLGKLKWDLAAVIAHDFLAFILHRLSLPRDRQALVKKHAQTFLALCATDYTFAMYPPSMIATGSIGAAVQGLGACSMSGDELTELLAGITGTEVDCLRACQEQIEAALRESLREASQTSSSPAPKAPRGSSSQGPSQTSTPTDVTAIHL
T2 sequence (P06239 223-509 P223M/C224D): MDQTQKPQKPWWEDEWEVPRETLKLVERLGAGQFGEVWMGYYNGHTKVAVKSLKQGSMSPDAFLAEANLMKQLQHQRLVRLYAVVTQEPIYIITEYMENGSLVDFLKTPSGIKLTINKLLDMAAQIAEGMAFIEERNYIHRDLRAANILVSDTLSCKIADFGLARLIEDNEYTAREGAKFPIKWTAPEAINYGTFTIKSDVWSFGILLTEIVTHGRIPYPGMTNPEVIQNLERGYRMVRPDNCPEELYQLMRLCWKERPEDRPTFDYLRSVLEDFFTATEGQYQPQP
Sequence of human FGF-R1 (P11362 456-766 L457V/C488A/C584S): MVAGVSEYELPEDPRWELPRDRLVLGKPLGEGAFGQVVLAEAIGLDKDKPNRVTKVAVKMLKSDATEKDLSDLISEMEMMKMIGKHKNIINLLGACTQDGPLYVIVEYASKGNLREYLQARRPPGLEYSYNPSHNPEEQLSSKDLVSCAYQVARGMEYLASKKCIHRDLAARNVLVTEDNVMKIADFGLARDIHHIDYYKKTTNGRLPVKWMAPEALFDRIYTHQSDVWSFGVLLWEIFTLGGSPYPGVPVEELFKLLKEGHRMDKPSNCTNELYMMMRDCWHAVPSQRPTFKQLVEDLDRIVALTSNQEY
Sequence of phosphorylated VEGF-R2Δ50 (FLVK-P) (P35968 with tags, fused parts or gaps DEL940-989/E990V limits assumed): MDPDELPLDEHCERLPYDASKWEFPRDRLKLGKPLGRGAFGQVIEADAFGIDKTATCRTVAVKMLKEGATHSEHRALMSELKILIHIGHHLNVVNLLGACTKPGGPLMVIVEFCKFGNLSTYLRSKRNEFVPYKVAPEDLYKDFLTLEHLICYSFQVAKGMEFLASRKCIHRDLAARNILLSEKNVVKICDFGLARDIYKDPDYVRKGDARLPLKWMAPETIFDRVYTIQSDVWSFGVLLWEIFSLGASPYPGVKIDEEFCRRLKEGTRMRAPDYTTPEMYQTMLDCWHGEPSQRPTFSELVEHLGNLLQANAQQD
Sequence of unphosphorylated VEGF-R2Δ50 (FLVK) (P35968 with tags, fused parts or gaps DEL940-989/E990V limits assumed): as above

With C=CCOc1cc(-c2ccc3c(/C=C/c4ccc(OC)c(OC)c4)n[nH]c3c2)ccc1O [Example 1(c), 3-[E-2-(3,4-Dimethoxy-phenyl)vinyl]-6-(3-allyloxy-4-hydroxy-phenyl)-1H-indazole] the IC50 ([1]; read-out: HUVEC IC50) was > 1000 nM, the Ki [2] was 4.7 nM and the Ki (CDK2/Cyclin A; Table 1) was 560 nM. The Ki (CDK4/Cyclin D3 complex) was 670 nM, the Ki [3] was 1.4 nM and the Ki (human CHK1 (FL-CHK1); Table 1, read-out: CHK-1 Ki) was 78 nM.

COc1cc(-c2ccc3c(-c4ccccc4)n[nH]c3c2)ccc1O [Example 2(b), 3-Phenyl-6-(3-methoxy-4-hydroxy-phenyl)-1H-indazole] gave a Ki [2] of 425 nM, a Ki (CDK2/Cyclin A; Table 1) of 2200 nM and a Ki (CDK4/Cyclin D3 complex) of 8000 nM. For the same molecule, the Ki [3] was 300 nM.

CC(=O)Nc1cccc(Oc2ccc3c(/C=C/c4ccccc4)n[nH]c3c2)c1 [Example 4(b), N-[3-(3-Styryl-1H-indazol-6-yloxy)-phenyl]-acetamide] showed a Ki [2] of 1.9 nM, a Ki (human FGF-R1) of 49 nM and a Ki [3] of 2.7 nM.

With C(=C\c1n[nH]c2cc(Oc3ccccc3)ccc12)/c1ccccc1 [Example 8(a), 3-(E-Styryl)-6-phenoxy-1H-indazole] the Ki [2] was 23 nM, the Ki (human FGF-R1) was 42 nM and the Ki [3] was 3.2 nM. The Ki (human CHK1 (FL-CHK1); Table 1, read-out: CHK-1 Ki) was 530 nM.

With CC(=O)Nc1cccc(N(C)c2ccc3c(/C=C/c4ccccc4)n[nH]c3c2)c1 [Example 12(a), N-{3-[Methyl-(3-styryl-1H-indazol-6-yl)-amino]-phenyl}-acetamide] the “% remain (HLM, 2 h)” value [4] was 59%, the Ki [2] was 6.9 nM and the Ki (human FGF-R1) was 19 nM. It also gave a Ki [3] of 1.8 nM.

For CN(c1cccc(NC(=O)c2ccccc2)c1)c1ccc2c(/C=C/c3ccccc3)n[nH]c2c1 [Example 12(b), N-{3-[Methyl-(3-styryl-1H-indazol-6-yl)-aimino]-phenyl}-benzamide], the Ki [2] was 1.8 nM, the Ki (human FGF-R1) was 31 nM and the Ki [3] was 0.48 nM.

For COc1cc(-c2ccc3c(-c4nc5ccccc5[nH]4)n[nH]c3c2)c(C)cc1O [Example 24(a), 4-[3-(1-H-Benzoimidazol-2-yl)-1-H-indazol-6-yl]-2-methoxy-5-methyl-phenol], the Ki [2] was 98.3 nM, the Ki (CDK2/Cyclin A; Table 2) was 17 nM and the Ki (CDK4/Cyclin D3 complex) was 5.1 nM. The Ki (human CHK1 (FL-CHK1); Table 2) was 28 nM.

Cc1cc(O)c(Cl)cc1-c1ccc2c(-c3nc4ccccc4[nH]3)n[nH]c2c1 [Example 24(c), 4-[3-(1-H-Benzoimidazol-2-yl)-1-H-indazol-6-yl]-2-chloro-5-methyl-phenol] gave a Ki [2] of 14.2 nM, a Ki (CDK2/Cyclin A; Table 2) of 3.4 nM and a Ki (CDK4/Cyclin D3 complex) of 1.5 nM. It also gave a Ki (human CHK1 (FL-CHK1); Table 2) of 44 nM.

Work on COc1cc(O)ccc1-c1ccc2c(-c3nc4ccccc4[nH]3)n[nH]c2c1 [Example 24(d), 3-1H-Benzoimidazol-2-yl-6-(4-hydroxy-2-methoxyphenyl)-1H-indazole] yielded a Ki [2] of 125 nM, a Ki (CDK2/Cyclin A; Table 2) of 83 nM and a Ki (CDK4/Cyclin D3 complex) of 17 nM. The Ki (human CHK1 (FL-CHK1); Table 2) was 56 nM.

Work on Oc1ccc(-c2ccc3c(-c4nc5ccccc5[nH]4)n[nH]c3c2)c(Oc2ccccc2)c1 [Example 24(g), 3-1H-Benzoimidazol-2-yl-6-(2-phenoxy-4-hydroxyphenyl)-1H-indazole] yielded a Ki [2] of 194 nM, a Ki (CDK2/Cyclin A; Table 2) of 130 nM and a Ki (CDK4/Cyclin D3 complex) of 29 nM.

COc1cc(-c2ccc3c(/C=C/c4ccc(NC(=O)CN)cc4)n[nH]c3c2)ccc1O [Example 26, 6(4-Hydroxy-3-methoxyphenyl)-3-[E-2-(4-glycylamino-phenyl)-ethenyl]-1H-indazole] showed a Ki [2] of 1.1 nM, a Ki (CDK2/Cyclin A; Table 1) of 3.2 nM and a Ki (human CHK1 (FL-CHK1); Table 1, read-out: CHK-1 Ki) of 6.6 nM.

With C#CCNC(=O)c1ccccc1Nc1ccc2c(/C=C/c3ccccn3)n[nH]c2c1 [Example 39(b), 6-[2-(Prop-2-ynylcarbamoyl)phenylamino]-3-E-[2-(pyridin-2-yl)ethenyl]-1H-indazole] the “plasma half-life (T1/2)” value ([5]; PO, 25 mg/kg, vehicle PEG400:H2O pH 2.3 30:70) was 11.8 h, the AUC(0-t) ([5]; female, PO, 25 mg/kg, vehicle PEG400:H2O pH 2.3 30:70) was > 31000 ng·h/mL and the Cmax ([5]; female, PO, 25 mg/kg, vehicle PEG400:H2O pH 2.3 30:70, read-out: Cmax) was > 5000 ng/mL. The concentration at 7 h ([5]; female, PO, 25 mg/kg) was 3150 ng/mL, the IC50 [1, 6] was > 10 nM and the inhibition at 1 µM (human FGF-R1; compound concentration 1 μM) was 50%. The inhibition at 1 µM (LCK tyrosine kinase) was 10%.

For O=C(c1cccc(NC(=O)C2C[C@H]2c2ccccc2)c1)c1ccc2c(/C=C/c3ccccn3)n[nH]c2c1 (stereo partly drawn) [Example 41(l), 6-[3-((2-RS-trans-Phenylcyclopropyl)carboxamido)benzoyl]-3-E-[2-(pyridin-2-yl)ethenyl]-1H-indazole], the AUClast [5, 7] was 1854 ng·h/mL, the Cmax [5, 7] was 623 ng/mL and the “plasma half-life (T1/2)” value [5, 7] was 3.1 h. For the same molecule, the AUClast [5, 8] was 212 ng·h/mL, the Cmax [5, 8] was 104 ng/mL and the “plasma half-life (T1/2)” value [5, 8] was 0.5 h. For the same molecule, the concentration at 7 h ([5]; female, IP, 25 mg/kg) was 102 ng/mL, the concentration at 7 h ([5]; female, PO, 50 mg/kg) was 0 ng/mL and the FGF-P % inhibition (human FGF-R1; Table 1, compound concentration 1 μM, 1 µM) was 66%. The inhibition at 1 µM (human FGF-R1; compound concentration 1 μM) was 76%, the Lck-P % inhibition (LCK tyrosine kinase; 1 µM) was 38%* and 63%* and the Ki [3] was 0.04 nM and 0.24 nM.

With CCn1nc(C)cc1C(=O)Nc1cc(C(=O)c2ccc3c(/C=C/c4ccccn4)n[nH]c3c2)c(C)cc1C [Example 41(ll), 6-[2,4-Dimethyl-5-((1-Ethyl-3-methyl-1H-pyrazol-5-yl)carboxamido)benzoyl]-3-E-[2-(pyridin-2-yl)ethenyl]-1H-indazole] the IC50 [1, 6] was 23 nM, the inhibition at 1 µM (human FGF-R1; compound concentration 1 μM) was 91% and the inhibition at 1 µM (LCK tyrosine kinase) was 14%. It also gave an inhibition at 0.05 µM [3] of 95%.

With O=C(Nc1cc(Nc2ccc3c(/C=C/c4ccccc4)n[nH]c3c2)ccc1F)c1ccccc1 [Example 47, 6-[N-(3-Benzamido-4-fluorophenyl)amino]-3-E-styryl-1H-indazole] the AUClast [5, 7] was 236 ng·h/mL, the Cmax [5, 7] was 39 ng/mL and the “plasma half-life (T1/2)” value [5, 7] was 19.9 h. For the same molecule, the AUClast [5, 8] was 327 ng·h/mL, the Cmax [5, 8] was 84 ng/mL and the “plasma half-life (T1/2)” value [5, 8] was 3.4 h. The inhibition at 1 µM (human FGF-R1; compound concentration 1 μM) was 88%, the inhibition at 1 µM (LCK tyrosine kinase) was 50% and the Ki [3] was 0.25 nM.

Cc1cc(C(=O)Nc2cccc(Oc3ccc4c(/C=C/c5ccccn5)n[nH]c4c3)c2)n(C)n1 [Example 57, 6-[3-((1,3-Dimethyl-1H-pyrazol-5-yl)carboxamido)phenoxy]-3-E-[2-(pyridin-2-yl)ethenyl]-1H-indazole] gave an inhibition at 1 µM (human FGF-R1; compound concentration 1 μM) of 89%, an inhibition at 1 µM (LCK tyrosine kinase) of 30% and an inhibition at 0.05 µM [3] of 100%.

CCn1nc(C)cc1C(=O)Nc1cc(Oc2ccc3c(/C=C/c4ncc[nH]4)n[nH]c3c2)ccc1C [Example 58] showed an inhibition at 1 µM (human FGF-R1; compound concentration 1 μM) of 98%, an inhibition at 1 µM (LCK tyrosine kinase) of 19% and an inhibition at 0.05 µM [3] of 98%.
